In ChEMBL document CHEMBL3046212, “Synthesis and immunostimulating activity of C-pseudonucleosides containing N-phenyl thiazolidin-4-one” (2013) one finds Activity data, which are given here for 14 compounds.

Common to all, as to type: functional, Splenocyte
Experiment [1] is described as follows: Immunostimulatory activity in Balb/c mouse splenocytes assessed as increase in conA-induced T cell proliferation at 50 uM after 72 hrs by MTT assay relative to control.
A short description of experiment [2]: Immunostimulatory activity in Balb/c mouse splenocytes assessed as increase in conA-induced T cell proliferation at 5 uM after 72 hrs by MTT assay relative to control.
Experiment [3] in a line: Immunostimulatory activity in Balb/c mouse splenocytes assessed as increase in conA-induced T cell proliferation at 10 uM after 72 hrs by MTT assay relative to control.
Experiment [4] can be described thus: Immunostimulatory activity in Balb/c mouse splenocytes assessed as increase in conA-induced T cell proliferation at 25 uM after 72 hrs by MTT assay relative to control.
A short description of experiment [5]: Immunostimulatory activity in Balb/c mouse splenocytes assessed as increase in conA-induced T cell proliferation at 100 uM after 72 hrs by MTT assay relative to control.

In the case of `COc1cccc(N2C(=O)CS[C@@H]2[C@H]2O[C@H](CO)[C@@H](O)[C@@H]2O)c1`, the Activity in experiment [1] is recorded as 158.7%; in experiment [2] it was 17.6%; in experiment [3] it was 165.1%; in experiment [4], 129.3%; in experiment [5], 125.4%.

As to `Cc1cccc(N2C(=O)CS[C@H]2[C@H]2O[C@H](CO)[C@@H](O)[C@@H]2O)c1`, the Activity stood at 158.7% in experiment [1]; 149.2% in experiment [2]; 142.1% in experiment [3]; 152.4% in experiment [4]; 169.8% in experiment [5].

Regarding `Cc1cccc(N2C(=O)CS[C@@H]2[C@H]2O[C@H](CO)[C@@H](O)[C@@H]2O)c1`, the Activity in experiment [1] is reported as 134.9%; in experiment [2], 163.5%; in experiment [3] it was 155.6%; in experiment [4] it was 157.9%; in experiment [5] it was 160.3%.

As for `COc1cccc(N2C(=O)CS[C@H]2[C@H]2O[C@H](CO)[C@@H](O)[C@@H]2O)c1`, the Activity in experiment [1] is on record as 147.6%; in experiment [2], 146%; in experiment [3], 134.1%; in experiment [4], 156.3%; in experiment [5], 162.7%.

With `CCOC(=O)c1ccc(N2C(=O)CS[C@H]2[C@H]2O[C@H](CO)[C@@H](O)[C@@H]2O)cc1`, the Activity in experiment [1] turned out to be 136.5%; in experiment [2] it was 153.2%; in experiment [3], 136.5%; in experiment [4], 161.9%; in experiment [5], 142.9%.

For `CCOC(=O)c1ccc(N2C(=O)CS[C@@H]2[C@H]2O[C@H](CO)[C@@H](O)[C@@H]2O)cc1`, the Activity in experiment [1] was 206.3%; in experiment [2], 132.5%; in experiment [3], 177%; in experiment [4], 126.2%; in experiment [5] it was 180.2%.

`O=C1CS[C@H]([C@H]2O[C@H](CO)[C@@H](O)[C@@H]2O)N1c1ccc(Cl)cc1`: the Activity in experiment [1] was determined as 30.9%; in experiment [2], 101.6%; in experiment [3], 91.5%; in experiment [4], 87.6%; in experiment [5], 107.1%.

Consider `Cc1ccc(N2C(=O)CS[C@H]2[C@H]2O[C@H](CO)[C@@H](O)[C@@H]2O)cc1`, for which the Activity in experiment [1] was found to be 96.3%; in experiment [2], 84.9%; in experiment [3] it was 83.7%; in experiment [4] it was 86.1%; in experiment [5] it was 95.2%.

With `Cc1ccc(N2C(=O)CS[C@@H]2[C@H]2O[C@H](CO)[C@@H](O)[C@@H]2O)cc1`, the Activity is 104% in experiment [1]; 91.2% in experiment [2]; 110% in experiment [3]; 95.6% in experiment [4]; 105.6% in experiment [5].

`COc1ccc(N2C(=O)CS[C@H]2[C@H]2O[C@H](CO)[C@@H](O)[C@@H]2O)cc1`: the Activity in experiment [1] is listed as 103.2%; in experiment [3], 106.8%; in experiment [4], 106.8%; in experiment [5], 99.2%.

In the case of `COc1ccc(N2C(=O)CS[C@@H]2[C@H]2O[C@H](CO)[C@@H](O)[C@@H]2O)cc1`, the Activity in experiment [1] was 93.6%; in experiment [2], 108.8%; in experiment [3], 105.2%; in experiment [4], 97.2%; in experiment [5], 99.6%.

For `O=C1CS[C@@H]([C@H]2O[C@H](CO)[C@@H](O)[C@@H]2O)N1c1cccc(Cl)c1`, the Activity in experiment [1] came out at 121.5%; in experiment [2] it was 139.7%; in experiment [3], 138.2%; in experiment [4] it was 130.3%; in experiment [5] it was 126%.

Take `O=C1CS[C@H]([C@H]2O[C@H](CO)[C@@H](O)[C@@H]2O)N1c1cccc(Cl)c1`: the Activity in experiment [1] is listed as 161.1%; in experiment [2] it was 162.2%; in experiment [3] it was 155.6%; in experiment [4], 158.7%; in experiment [5], 144.4%.

Regarding `O=C1CS[C@@H]([C@H]2O[C@H](CO)[C@@H](O)[C@@H]2O)N1c1ccc(Cl)cc1`, the Activity in experiment [1] is listed as 112.3%; in experiment [2] it was 100%; in experiment [3] it was 101.2%; in experiment [4], 102.2%; in experiment [5], 112.4%.
